Source: patent US11401278B2, “Macrocyclic indole derivatives” (The Broad Institute, Inc., priority 2017, dated 2022)
Structures can show the parent of a compound that is named as a salt. Where two headings read alike, the source gives them in different places.

Tests used:
MCL-1 = MCL-1 (Homo sapiens (Human), UniProt Q07820, K194A/K197A/R201A); assay: Protein-protein interaction assay MCL-1/Noxa BH3 peptide (MCL-1 assay, TR-FRET); type: binding; conditions: MBP-MCL-1 / Noxa BH3 peptide, median
How it was run: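 TR-FRET competition assay read at 665/620 nm, with a Noxa BH3 tracer peptide (1 nM) plus Eu-cryptate anti-MBP and XL665-streptavidin. Compounds (0.1 nM-20 μM, duplicates) were pre-equilibrated 10 min at 22° C with 1 nM MBP-MCL-1 (173-329) in Tris pH 7, NaCl, KF, DTT buffer, then incubated 1 h at 22° C and overnight at 4° C. IC50 came from 4-parameter regression.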

SUDHL10 = assay: Induction of caspase-3/7 activity (Assay 4), SUDHL10; type: cell-based; conditions: caspase-3/7 induction, median
How it was run: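 DLBCL cells were exposed to compounds for 3 hours at 37 °C, then caspase-3/7 activation was read with Caspase-Glo 3/7 reagent. After subtracting medium-only background, EC50s were derived with fixed C0=1 and the reference compound's maximal induction as plateau.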

SUDHL5 = assay: Induction of cytotoxicity (Assay 6), SUDHL5; conditions: read-out: Cytotox SUDHL5 [M] (median) IC50, CellTiter-Glo, 5 hours, SUDHL5
Method: Assay 6 Induction of Cytotoxicity Upon Treatment of Cells with Selected Compounds
Therefore, cytotoxicity assays were run in parallel in SUDHL5 and SUDHL10 cells.
The different cell lines were plated in culture medium (RPMI 1640 [GIBCO #22400-089] supplemented with 10% Fetal Bovine Serum) at a density of 3,300 cells in 30 μl/well in a sterile, solid black, flat bottom, polystyrene, TC-treated 384-well microplate (Corning #3571) using Multidrop Combi Reagent Dispenser. As a control, medium without cells was also added to the plate. Cells were incubated in a humidified incubator at 37° C. overnight. On the next day, the cells were treated with compounds (stock solution, 10 mM in DMSO) using the HP D300 Digital Dispenser in a concentration range of 3.3×10e-5 M (33 μM) to 5×10e-9 M (5 nM) in a single-dot curve with at least 16 dilutions and a DMSO concentration of 0.33%. Rim wells were excluded. The cells were incubated for 5 hours in a humidified incubator at 37° C. After this incubation, 30 μl of CellTiter-Glo® Luminescent Cell Viability reagent (Promega, G7573) was added to each well using the Multidrop Combi Reagent Dispenser, followed by 15 minutes incubation on a shaker at room temperature. Finally, luminescence was read at 0.1 ms, with a gain of 3000 using the PHERAstar FS microplate reader (BMG Labtech).

Chain of MCL-1 (Q07820 whole entry K194A/K197A/R201A, looked up): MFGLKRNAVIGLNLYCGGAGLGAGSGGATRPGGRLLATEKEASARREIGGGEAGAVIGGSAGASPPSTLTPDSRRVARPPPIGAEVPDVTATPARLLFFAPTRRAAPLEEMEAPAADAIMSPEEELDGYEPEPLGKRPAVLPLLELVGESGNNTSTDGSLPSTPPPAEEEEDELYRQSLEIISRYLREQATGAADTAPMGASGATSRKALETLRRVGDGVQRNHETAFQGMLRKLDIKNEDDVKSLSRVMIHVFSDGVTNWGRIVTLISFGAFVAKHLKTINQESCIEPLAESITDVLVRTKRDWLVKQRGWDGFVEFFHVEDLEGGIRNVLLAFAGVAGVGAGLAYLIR

Row | Structure (SMILES) | IC50 (MCL-1) [nM] | EC50 (SUDHL10; Homo sapiens, SU-DHL10, 3 h) [nM] | IC50 (SUDHL5; Homo sapiens, SU-DHL-5, 5 h) [M] | EC50 (SUDHL10; 3 hours) [nM] | IC50 (SUDHL5) [M]
1 | Cc1c2c(nn1C)CN(CCN1CCOCC1)S(=O)(=O)CCCn1c(C(=O)O)c(CCCOc3cccc4ccccc34)c3cccc-2c31 (racemic) [Example 1, (rac)-2,3-Dimethyl-14-[2-(morpholin-4-yl)ethyl]-7-{3-[(naphthalen-1-yl)oxy]propyl}-13,13-dioxo-10,11,12,13,14,15-hexahydro-2H-13λ^6-pyrazolo[3′,4′:4,5][1,2,8]thiadiazacycloundecino-[6,7,8-hi]indole-8-carboxylic acid] | 6.2 | 14000 | 6.7e-06 |  | 
2 | CCc1c2c(nn1C)CN(CCCN1CCCC1=O)S(=O)(=O)CCCn1c(C(=O)O)c(CCCOc3cccc4ccccc34)c3cccc-2c31 (racemic) [Example 13, (rac)-12-Ethyl-11-methyl-1-(3-(naphthalen-1-yloxy)propyl)-8-(3-(2-oxopyrrolidin-1-yl)propyl)-5,6,9,11-tetrahydro-4H,8H-pyrazolo[3′,4′:4,5][1]thia[2,8]diazacycloundecino[6,7,8-hi]indole-2-carboxylic acid 7,7-dioxide] | 6.3 | 16000 | 8.2e-06 |  | 
3 | CCc1c2c(nn1C)CN(CCN1CCCCC1)S(=O)(=O)CCCn1c(C(=O)O)c(CCCOc3cccc4ccccc34)c3cccc-2c31 (racemic) [Example 14, (rac)-12-Ethyl-11-methyl-1-(3-(naphthalen-1-yloxy)propyl)-8-(2-(piperidin-1-yl)ethyl)-4,5,6,8,9,11-hexahydropyrazolo[3′,4′:4,5][1,2,8]thiadiazacycloundecino[6,7,8-hi]indole-2-carboxylic acid 7,7-dioxide 2,2,2-trifluoroacetic acid salt] | 9.8 | 9200 | 5.2e-06 |  | 
4 | CCc1c2c(nn1C)CNS(=O)(=O)CCCn1c(C(=O)O)c(CCCOc3cccc4ccccc34)c3cccc-2c31 (racemic) [Example 17, (rac)-12-Ethyl-11-methyl-1-(3-(naphthalen-1-yloxy)propyl)-4,5,6,8,9,11-hexahydropyrazolo[3′,4′:4,5][1,2,8]thiadiazacycloundecino[6,7,8-hi]indole-2-carboxylic acid 7,7-dioxide] | 8.1 | 21000 | 9.3e-06 |  | 
5 | Cc1cc(OCCCc2c(C(=O)O)n3c4c(c(F)ccc24)-c2c(nn(C)c2C)CN(C)S(=O)(=O)CCC3)cc(C)c1Cl (racemic) [Example 28, (rac)-1-(3-(4-Chloro-3,5-dimethylphenoxy)propyl)-13-fluoro-8,11,12-trimethyl-5,6,9,11-tetrahydro-4H,8H-pyrazolo[3′,4′:4,5][1]thia[2,8]diazacycloundecino[6,7,8-hi]indole-2-carboxylic acid 7,7-dioxide] | 4 | 11000 | 3.1e-06 |  | 
6 | Cc1c2c(nn1C)CN(C)S(=O)(=O)CCCn1c(C(=O)O)c(CCCOc3cccc4c3CCCC4)c3ccc(F)c-2c31 (racemic) [Example 29, (rac)-13-Fluoro-8,11,12-trimethyl-1-(3-((5,6,7,8-tetrahydronaphthalen-1-yl)oxy)propyl)-5,6,9,11-tetrahydro-4H,8H-pyrazolo[3′,4′:4,5][1]thia[2,8]diazacycloundecino[6,7,8-hi]indole-2-carboxylic acid 7,7-dioxide] | 3.1 | 4500 | 1.8e-06 |  | 
7 | CCc1c2c(nn1C)C(CCN1CCOCC1)N(C)S(=O)(=O)CCCn1c(C(=O)O)c(CCCOc3cccc4cc(F)ccc34)c3ccc(Cl)c-2c31 (racemic) [Example 73, (rac)-(4-chloro-3-ethyl-7-{3-[(6-fluoronaphthalen-1-yl)oxy]propyl}-2,14-dimethyl-15-[2-(morpholin-4-yl)ethyl]-13,13-dioxo-10,11,12,13,14,15-hexahydro-2H-13lambda^6-pyrazolo[3′,4′:4,5][1,2,8]thiadiazacycloundecino[6,7,8-hi]indole-8-carboxylic acid (Racemate 1)] | 0.34 |  |  | 230 | 

Further molecules by falling IC50 (MCL-1), results first:

Row | IC50 (MCL-1) [nM] | EC50 (SUDHL10; Homo sapiens, SU-DHL10, 3 h) [nM] | Structure (SMILES) | IC50 (SUDHL5; Homo sapiens, SU-DHL-5, 5 h) [M] | EC50 (SUDHL10; 3 hours) [nM] | IC50 (SUDHL5) [M]
8 | 7.8 | 8400 | CCc1c2c(nn1C)C(C)N(C)S(=O)(=O)CCCn1c(C(=O)O)c(CCCOc3cccc4ccccc34)c3cccc-2c31 (racemic) [Example 18, 12-Ethyl-8,9,11-trimethyl-1-(3-(naphthalen-1-yloxy)propyl)-5,6,9,11-tetrahydro-4H,8H-pyrazolo[3′,4′:4,5][1]thia[2,8]diazacycloundecino[6,7,8-hi]indole-2-carboxylic acid 7,7-dioxide (Mixture of Stereoisomers)] | 3.5e-06 |  | 
9 | 5.7 | > 33000 | CCc1c2c(nn1C)CN(CCCN1CCCC1)S(=O)(=O)CCCn1c(C(=O)O)c(CCCOc3cccc4ccccc34)c3cccc-2c31 (racemic) [Example 16, (rac)-12-Ethyl-11-methyl-1-(3-(naphthalen-1-yloxy)propyl)-8-(3-(pyrrolidin-1-yl)propyl)-5,6,9,11-tetrahydro-4H,8H-pyrazolo[3′,4′:4,5][1]thia[2,8]diazacycloundecino[6,7,8-hi]indole-2-carboxylic acid 7,7-dioxide] | 3.2e-05 |  | 
10 | 5.6 | 6400 | CCc1c2c(nn1C)CN(CCCN1CCOCC1)S(=O)(=O)CCCn1c(C(=O)O)c(CCCOc3cccc4ccccc34)c3cccc-2c31 (racemic) [Example 15, (rac)-12-Ethyl-11-methyl-8-(3-morpholinopropyl)-1-(3-(naphthalen-1-yloxy)propyl)-4,5,6,8,9,11-hexahydropyrazolo[3′,4′:4,5][1,2,8]thiadiazacycloundecino[6,7,8-hi]indole-2-carboxylic acid 7,7-dioxide 2,2,2-trifluoroacetic acid salt] | 2.9e-06 |  | 
11 | 3.6 | 3500 | Cc1c2c(nn1C)CN(C)S(=O)(=O)CCCn1c(C(=O)O)c(CCCOc3cccc4ccccc34)c3ccc(F)c-2c31 (racemic) [Example 26, (rac)-13-Fluoro-8,11,12-trimethyl-1-(3-(naphthalen-1-yloxy)propyl)-5,6,9,11-tetrahydro-4H,8H-pyrazolo[3′,4′:4,5][1]thia[2,8]diazacycloundecino[6,7,8-hi]indole-2-carboxylic acid 7,7-dioxide] | 1.8e-06 |  | 
12 | 3.6 | 1900 | CCc1c2c(nn1C)CN(C)S(=O)(=O)CCCn1c(C(=O)O)c(CCCOc3cccc4ccccc34)c3ccc(F)c-2c31 (racemic) [Example 31, (rac)-12-Ethyl-13-fluoro-8,11-dimethyl-1-(3-(naphthalen-1-yloxy)propyl)-5,6,9,11-tetrahydro-4H,8H-pyrazolo[3′,4′:4,5][1]thia[2,8]diazacycloundecino[6,7,8-hi]indole-2-carboxylic acid 7,7-dioxide] | 9.3e-07 |  | 
13 | 2.1 | 2400 | Cc1c2c(nn1C)CN(C)S(=O)(=O)CCCn1c(C(=O)O)c(CCCOc3cccc4c3CCC4)c3ccc(F)c-2c31 (racemic) [Example 27, (rac)-1-(3-((2,3-Dihydro-1H-inden-4-yl)oxy)propyl)-13-fluoro-8,11,12-trimethyl-5,6,9,11-tetrahydro-4H,8H-pyrazolo[3′,4′:4,5][1]thia[2,8]diazacycloundecino[6,7,8-hi]indole-2-carboxylic acid 7,7-dioxide] | 8.7e-07 |  | 
14 | 1.7 | 1500 | Cc1c2c(nn1C)CN(C)S(=O)(=O)CCCn1c(C(=O)O)c(CCCOc3cccc4cc(F)ccc34)c3ccc(F)c-2c31 (racemic) [Example 25, (rac)-13-Fluoro-1-(3-((6-fluoronaphthalen-1-yl)oxy)propyl)-8,11,12-trimethyl-5,6,9,11-tetrahydro-4H,8H-pyrazolo[3′,4′:4,5][1]thia[2,8]diazacycloundecino[6,7,8-hi]indole-2-carboxylic acid 7,7-dioxide] | 7.5e-07 |  | 
15 | 1.5 | 1100 | CCc1c2c(nn1C)CN(C)S(=O)(=O)CCCn1c(C(=O)O)c(CCCOc3cccc4c3CCC4)c3ccc(F)c-2c31 (racemic) [Example 32, (rac)-1-(3-((2,3-Dihydro-1H-inden-4-yl)oxy)propyl)-12-ethyl-13-fluoro-8,11-dimethyl-5,6,9,11-tetrahydro-4H,8H-pyrazolo[3′,4′:4,5][1]thia[2,8]diazacycloundecino[6,7,8-hi]indole-2-carboxylic acid 7,7-dioxide] | 7.4e-07 |  | 
16 | 1.3 | 740 | CCc1c2c(nn1C)CN(C)S(=O)(=O)CCCn1c(C(=O)O)c(CCCOc3cccc4cc(F)ccc34)c3ccc(F)c-2c31 (racemic) [Example 7, (rac)-12-Ethyl-13-fluoro-1-(3-((6-fluoronaphthalen-1-yl)oxy)propyl)-8,11-dimethyl-5,6,9,11-tetrahydro-4H,8H-pyrazolo[3′,4′:4,5][1]thia[2,8]diazacycloundecino[6,7,8-hi]indole-2-carboxylic acid 7,7-dioxide] | 4.7e-07 |  | 
17 | 1.2 |  | Cc1c2c(nn1C)CN(C)S(=O)(=O)CCCn1c(C(=O)O)c(CCCOc3cccc4ccccc34)c3ccc(Cl)c-2c31 (racemic) [Example 4, (rac)-4-Chloro-2,3,14-trimethyl-7-{3-[(naphthalen-1-yl)oxy]propyl}-13,13-dioxo-10,11,12,13,14,15-hexahydro-2H-13λ^6-pyrazolo[3′,4′:4,5][1,2,8]thiadiazacycloundecino-[6,7,8-hi]indole-8-carboxylic acid] |  | 1600 | 8.1e-07
